Laboratory results: patent US4327114A, “Substituted 1,8-dihydroxy-9-(10H)anthracenones” (Boehringer Ingelheim GmbH, priority 1980, dated 1982)

How the values were obtained:
skin [1] = conditions: literature or prior use; cited from earlier work
[2] = tested on: skin (forearms of volunteer human test subjects); experiment: Orienting skin compatibility in humans (ointments on forearm); type: in vivo; conditions: 0.44% ointment, 16 hours, doubled to 0.88% after 3 days if no reaction
Procedure: Ointments, each containing individually 0.44% of compounds […] and K were applied to the forearms of volunteer human test subjects, covered with bandage gauze and allowed to remain on the skin for 16 hours. After 16 hours the ointments were washed off with soap solution, and the skin irritation and discoloration, if any, were evaluated visually and photographed. Then, the test ointments were again administered and allowed to remain on the skin until the next day. Again, the reactions were evaluated and a new treatment was started.

[3] = target: glucose-6-phosphate-dihydrogenase; experiment: Inhibition of glucose-6-phosphate-dihydrogenase after 120 minutes incubation; type: biochemical; conditions: 37° C., pH 7.6, REED and MUENCH
Procedure: The inhibiting effect upon enzymes was determined by measurement of the inhibition of glucose-6-phosphate-dihydrogenase.
The following equilibrium was observed: [drawing 5] (NADP-nicotinamide-adenine-dinucleotide-phosphate). The rate of formation of NADPH is a measure of the enzyme activity; it can be measured by means of the increase in extinction at […] per unit of time.
0.025 ml of glucose-6-phosphate-dihydrogenase were diluted to 10 ml with distilled water (Solution I). 100 mg of nicotinamide-adenine-dinucleotide-phosphate were dissolved in 13 ml of distilled water (Solution II). 47.2 mg of glucose-6-phosphate were dissolved in another 10 ml of distilled water (Solution III). Besides this, a buffer solution (Solution IV) was prepared as follows:
0.28 gm of triethanolamine hydrochloride and 1.461 gm of ethylene-diamine tetraacetic acid disodium salt were dissolved in 1 liter of distilled water, and the solution was adjusted to pH 7.6 with sodium hydroxide. The substance to be tested was dissolved in dimethyl formamide or ethanol (Solution V). Tested end-concentrations: 25, 12.5, 6.25, 3.125, 1.56 and 0.78 μg/ml.
A mixture of 0.1 ml of Solution I, 0.1 ml of Solution II, 2.67 ml of Solution IV and 0.03 ml of Solution V was kept at 37° C. for 120 minutes. After addition of 0.1 ml of Solution III and thorough mixing, the change in extinction was measured photometrically at 366 nm over 3 minutes. The inhibition values were calculated from the average values of 3 measurements (as change of extinction per minute), compared to controls to which the pure solvent was added as inhibitor solution. The ED50 was calculated according to the method of REED and MUENCH from the inhibiting values of the different concentrations. The following table contains the values thus determined: […]

skin of guinea pigs = experiment: Skin compatibility test on guinea pigs; type: in vivo, guinea pig (Perbright White strain); conditions: for Sum of the reactions divided by the number of animals: score 0 no irritation to 3 very strong erythema; for skin compatibility compared with compound A: Table 3
Procedure: Guinea pigs of the Perbright White strain, with a body weight of about 350 gm, were fed with standard guinea pig feed (Altromin 3022) and water ad lib.
During the test, the animals were kept in single cages. The test substances, which were dissolved in a well compatible solvent, were applied to the skin of the animals (diameter of the test area 3.5 cm) daily for 3 weeks, from Monday to Friday. The animals were shaved each Monday, Wednesday and Friday in the early morning, the treatment with the test substances was performed in the early afternoon. Immediately before administration of the substance, the skin reaction was tested. The evaluation was carried out visually, and erythema, edema, and mycosis of the skin were considered.
The following evaluation was made:
2: strong erythema with beginning edema
3: very strong erythema with edema or beginning necrosis.
The numerical sum of the reactions was used for the total evaluation of a group of animals.

[4] = Acute toxicity in the mouse; type: in vivo; conditions: in vivo, ip, within 14 days
Procedure: (§1) The acute toxicity was determined in the mouse and in the rat. Determined was the LD50, i.e. the dose after administration of which 50% of the animals died within 14 days, or it was determined how many of the 10 treated animals died within the period of observation.

mouse = experiment: Acute toxicity in the mouse; type: in vivo
Procedure: as §1

guinea pigs = experiment: Sensitizing activity on guinea pigs; type: in vivo, guinea pig (Perbright White strain); conditions: 1:10 to 1:50 of the original concentrations, behind the ears
Procedure: The sensitizing activity was tested 2 weeks after the skin compatibility test with 1:10 to 1:50 of the originally used concentrations behind the ears.

[5] = Acute toxicity in the rat; type: in vivo; conditions: in vivo, ip, within 14 days
Procedure: as §1

rat = experiment: Acute toxicity in the rat; type: in vivo; conditions: 2000 mg/kg
Procedure: as §1

[6] = Natural color of the substance (UV-absorption, FIG. 1); type: physicochemical; conditions: shortwave portion of visible light, beginning at 380 nm
From the text: Topically administrable substances which are colored are undesirable for cosmetic reasons and also because the lingerie may become soiled. […] This is also expressed by the optic impression of the preparations. […] This is a further advantage compared with dithranol.

skin [7] = experiment: Skin compatibility under occlusion, method of Mustakallio; type: in vivo; conditions: 4 to 128 mmols in white vaseline, after 4 and after 16 hours of occlusion
Procedure: In a further test, according to the method of Mustakallio, compound A was applied at concentrations of 1, 2, 4, 8, 16, 32 mmols in white vaseline and allowed to remain on the skin for 4 hours under occlusion. Compounds C and K, however, were applied at concentrations of 4, 8, 16, 32, 64, 128 mmols, also in white vaseline, and allowed to remain on the skin for 16 hours under occlusion. […] This means that the novel compounds are more compatible by a factor of at least 64.

[8] = Penetration and metabolization in the skin in vitro; type: in vitro ADME, pig; conditions: thin-layer chromatography; for penetration into the layers of the skin: same carriers
psoriasis = conditions: cited from earlier work; for antipsoriatic activity: literature or prior use

In the case of CC(=O)C1c2cccc(O)c2C(=O)c2c(O)cccc21 [10-Acetyl-dithranol], the “skin irritation and/or discoloration” value (skin [1]) is given as “discolored and irritated the skin at concentrations from 0.5% even more than the starting compound”.
In the case of Cc1cc(O)c2c(c1)Cc1cccc(O)c1C2=O [Compound B, 1,8-Dihydroxy-3-methyl-9-(10H)-anthracenone, reference compound], the “discoloration of the skin” value [2] is reported as “skin discoloration similar to compound A” and the “ED50, inhibition of incubation after 120 minutes” value (shortened to “ED50, inhibition of incubation”) [3] is reported as 6.86 mg/L.
With CC(C)c1ccc(O)c2c1Cc1cccc(O)c1C2=O [Compound F, 1,8-Dihydroxy-4-isopropyl-9-(10H)anthracenone] the “Sum of the reactions divided by the number of animals” value (“Sum of the reactions divided” for short) (skin of guinea pigs; 0.015%, end of 1st week) was 0.085, the “Sum of the reactions divided” value (skin of guinea pigs; 0.015%, end of 2nd week) was 0.085 and the “Sum of the reactions divided” value (skin of guinea pigs; 0.015%, end of 3rd week) was 0.085. For the same compound, the “Sum of the reactions divided” value (skin of guinea pigs; 0.045%, end of 1st week) was 0.085, the “Sum of the reactions divided” value (skin of guinea pigs; 0.045%, end of 2nd week) was 0.085 and the “Sum of the reactions divided” value (skin of guinea pigs; 0.045%, end of 3rd week) was 0.085. For the same compound, the “skin compatibility compared with compound A” value (skin of guinea pigs) was “considerably more skin-compatible than compound A”, the LD50 at 336 h [4] was 52 mg/kg and the “Number of dead animals” value (mouse; p.o., 2000 mg/kg) was 0/10. For the same compound, the “Number of dead animals” value (mouse; sc., 2000 mg/kg) was 0/10, the “sensitization” value (guinea pigs) was “no sensitization” and the “discoloration of the skin” value [2] was “no skin irritation or discoloration of the skin”. The skin irritation [2] was “no skin irritation”, the LD50 at 336 h [5] was 45 mg/kg and the “Number of dead animals” value (rat; p.o.) was 0/10. For the same compound, the “Number of dead animals” value (rat; sc.) was 0/10 and the “ED50, inhibition of incubation” value [3] was 5.35 mg/L.
For O=C1c2c(O)cccc2Cc2ccc(C3CCCCC3)c(O)c21 [Compound I, 2-Cyclohexyl-1,8-dihydroxy-9-(10H)anthracenone], the “ED50, inhibition of incubation” value [3] was 3.94 mg/L.
In the case of CC(C)(C)c1ccc2c(c1O)C(=O)c1c(ccc(C(C)(C)C)c1O)C2 [Compound K, 2,7-Di-tert. butyl-1,8-dihydroxy-9-(10H)anthracenone], the “UV-absorption / yellow color” value [6] is reported as “significantly less UV-absorption”, the “Sum of the reactions divided” value (skin of guinea pigs; 0.03%, end of 1st week) is reported as 0.00 and the “Sum of the reactions divided” value (skin of guinea pigs; 0.03%, end of 2nd week) is reported as 0.042. For the same compound, the “Sum of the reactions divided” value (skin of guinea pigs; 0.03%, end of 3rd week) was 0.00, the “skin compatibility compared with compound A” value (skin of guinea pigs) was “considerably more skin-compatible than compound A” and the “Number of dead animals” value (mouse; i.p., 1000 mg/kg) was 0/10. The “Number of dead animals” value (mouse; p.o., 4000 mg/kg) was 0/10, the “Number of dead animals” value (mouse; sc., 1000 mg/kg) was 0/10 and the “sensitization” value (guinea pigs) was “no sensitization”. For the same compound, the “skin irritations or discolorations” value (skin [7]) was “no skin irritations or discolorations could be observed”, the “penetration into the layers of the skin” value [8] was “penetrate to an approximately equal extent” and the “metabolization in the skin” value [8] was “metabolized in a similar manner”. For the same compound, the “ED50, inhibition of incubation” value [3] was 7.77 mg/L.
For CC(C)(C)c1ccc2c(c1O)C(=O)c1c(O)cccc1C2 [D, 2-tert. Butyl-1,8-dihydroxy-9-(10H)anthracenone], the “Sum of the reactions divided” value (skin of guinea pigs; 0.03%, end of 1st week) was 0.083, the “Sum of the reactions divided” value (skin of guinea pigs; 0.03%, end of 2nd week) was 0.042 and the “Sum of the reactions divided” value (skin of guinea pigs; 0.03%, end of 3rd week) was 0.00. The “skin compatibility compared with compound A” value (skin of guinea pigs) was “considerably more skin-compatible than compound A”, the “sensitization” value (guinea pigs) was “no sensitization” and the “discoloration of the skin” value [2] was “no skin irritation or discoloration of the skin”. The skin irritation [2] was “no skin irritation” and the “ED50, inhibition of incubation” value [3] was 6.32 mg/L.
In the case of CCCCC(C)c1ccc2c(c1O)C(=O)c1c(O)cccc1C2 (centres unmarked) [E, 2-(2-Hexyl)-1,8-dihydroxy-9-(10H)anthracenone], the “discoloration of the skin” value [2] is reported as “no skin irritation or discoloration of the skin”, the skin irritation [2] is reported as “no skin irritation” and the “ED50, inhibition of incubation” value [3] is reported as 3.61 mg/L.
For CC(C)c1cc(C(C)C)c2c(c1O)C(=O)c1c(O)cccc1C2 [G, 1,8-Dihydroxy-2,4-diisopropyl-9-(10H)anthracenone], the “discoloration of the skin” value [2] was “no skin irritation or discoloration of the skin”, the skin irritation [2] was “no skin irritation” and the “penetration into the layers of the skin” value [8] was “penetrate to an approximately equal extent”. The “metabolization in the skin” value [8] was “metabolized in a similar manner” and the “ED50, inhibition of incubation” value [3] was 5.67 mg/L.
With O=C1c2c(O)cccc2Cc2c(Cl)ccc(O)c21 [H, 4-Chloro-1,8-dihydroxy-9-(10H)anthracenone] the “ED50, inhibition of incubation” value [3] was 3.85 mg/L.
In the case of O=CCCC1(CCC=O)c2cccc(O)c2C(=O)c2c(O)cccc21 [bis-(formylethyl)-dithranol], the antipsoriatic activity (psoriasis) is listed as “did not exhibit any antipsoriatic activity” and the “skin irritation and/or discoloration” value (skin [1]) is listed as “no irritation and discoloration”.
For CC(=O)Oc1cccc2cc3cccc(OC(C)=O)c3c(OC(C)=O)c12 [dithranol triacetate, 1,8,9-Triacetoxyanthracene], the antipsoriatic activity (psoriasis) is given as “less active than dithranol”, the therapeutic index (psoriasis; literature, compared with dithranol) is given as “a real improvement of the therapeutic index could not be obtained” and the “skin irritation and/or discoloration” value (skin [1]) is given as “less skin irritation”.
